# pIC50: −log10 of the molar value. Values joined by “and” are separate entries in the source; they are usually repeats but may differ in a detail not shown here. Identical values can stand only once. Like-named read-outs stand apart in the source and are kept apart here.
# Assays:
# ER/ERE complex = biological target: T1, ER/ERE complex (Homo sapiens, UniProt P03372); test: EMSA and supershift assays of ER binding to consensus ERE, MCF-7 nuclear extracts; type: biochemical; conditions: for ER/ERE complex in EMSA, compound added directly to nuclear extracts: 1-5 μM added to MCF-7 nuclear extracts, compared with pre-incubation of cells; for interaction of ER with a model ERE oligonucleotide (EMSA, supershift): MCF-7 cells
# T1 construct: MCF-7 cells in 24-well dishes were transfected overnight with the ERE-TK-Luc reporter plasmid; endogenous in cells; host or cells: MCF-7
# T1 sequence (P03372 1-595): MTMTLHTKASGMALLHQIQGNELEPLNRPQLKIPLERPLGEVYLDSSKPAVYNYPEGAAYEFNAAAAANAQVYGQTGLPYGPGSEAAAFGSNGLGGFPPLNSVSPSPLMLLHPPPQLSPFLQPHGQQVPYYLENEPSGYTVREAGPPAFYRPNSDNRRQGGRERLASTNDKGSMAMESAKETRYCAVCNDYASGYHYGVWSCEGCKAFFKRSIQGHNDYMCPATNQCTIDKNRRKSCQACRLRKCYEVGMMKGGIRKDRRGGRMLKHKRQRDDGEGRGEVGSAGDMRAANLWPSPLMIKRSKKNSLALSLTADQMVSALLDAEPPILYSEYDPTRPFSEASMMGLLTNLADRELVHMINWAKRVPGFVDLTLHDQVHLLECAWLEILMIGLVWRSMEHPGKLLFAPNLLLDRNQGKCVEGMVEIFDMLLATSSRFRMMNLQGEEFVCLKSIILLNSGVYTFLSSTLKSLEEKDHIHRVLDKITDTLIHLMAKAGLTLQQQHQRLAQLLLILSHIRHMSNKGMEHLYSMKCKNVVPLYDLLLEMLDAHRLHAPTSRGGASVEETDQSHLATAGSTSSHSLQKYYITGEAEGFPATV
# Description: After the 24-hr incubation, the cells were harvested, nuclear extracts were prepared, and the extracts were reacted with labeled “hot” ERE and an excess of unlabeled “cold” ERE, as indicated, prior to electrophoresis. In panel B, the experiment was performed similarly except that an anti-ER antibody was added to generate a “supershift”. C., D. Experiments were performed similarly to those above, except that different concentrations of compound (as indicated) were added directly to the reaction mixture containing nuclear extract and were not pre-incubated with whole cells. […] E., F. These experiments were performed similarly to those in C and D, except that anti-ER antibody was added to the reaction mixture to reveal “supershifted” bands. […] The data shown in each panel are representative of three independent experiments.
# Double-stranded oligonucleotides containing a consensus ERE were obtained from Santa Cruz Biotechnology (sc-2858). Sequences of the oligonucleotides were: sense 5′-[…]-3′ and antisense: 3′-[…]-5′. Oligonucleotides were 3′-end-labeled using a Biotin Kit (Thermo Scientific, Rockford, IL). DNA binding reactions were carried out using nuclear extracts of MCF-7 cells that were treated ± E2 (10 nM) and ± the indicated compound for 24-hr. Treated cells were harvested and nuclear extracts were prepared using the NE-PER Nuclear and Cytoplasmic Extraction Reagents (Thermo Scientific). Aliquots of nuclear extract protein (2 μg) were incubated with gel-shift binding buffer (LightShift Chemiluminescent EMSA Kit, Thermo Scientific) for 30 min at 25°C. After incubation, 40 fmol of biotin-labeled ERE-containing oligonucleotides were added, and the mixture was re-incubated for 30 min at 25°C. Reaction products were loaded electrophoresed on a 6% DNA retardation gel (Invitrogen) and transferred onto a nylon membrane. Biotin-labeled DNA was detected using the Chemiluminescent Nucleic Acid Detection Module (Thermo Scientific). To test the specificity of binding, a 40-fold excess of unlabeled (“cold”) oligonucleotide was added to one of the reactions along with the biotin-labeled (“hot”) oligonucleotide. Note: In some experiments, the compound was added to the reaction mixture after the nuclear extract was prepared. Supershift assays were performed as above, except that before addition of the hot ERE oligonucleotide, nuclear extracts were incubated with 2-μg of anti-ER IgG (rabbit polyclonal, HC-20, Santa Cruz) for 30 min at 25°C.
# [1] = biological target: T2, estrogen receptor-alpha (ER) (Homo sapiens, UniProt P03372); test: ER activity, ERE-TK-Luc reporter, in MCF-7 cells; type: cell-based; design: MCF-7 cells in 24-well dishes were transfected overnight with the ERE-TK-Luc reporter plasmid; endogenous in cells; host or cells: MCF-7; conditions: for pIC50: read-out: IC50 for inhibition of E2-stimulated ER activity
# T2 sequence (P03372 1-595): T1 sequence (P03372 1-595)
# Description: For MCF-7, luciferase activity is expressed as a fold-change relative to the no E2 control. For LCC9, luciferase activity is expressed relative to the control without the reporter present. Values plotted are means ± SEMs of four replicate wells. The data shown in each panel are representative of three independent experiments.
# The cells were then treated ± 17β-estradiol (E2, 10 nM) and with the indicated compound (@ 1 μM or 20 μM) or vehicle only (DMSO) for 24 hr and assayed for luciferase activity. Luciferase activity is expressed as a fold-change relative to the no E2 control. The data shown are representative of three independent experiments.
# Subconfluent cells in 24-well dishes were transfected overnight with 0.25 μg of each indicated vector plus the ERE-TK-Luc reporter in serum-free DMEM containing Lipofectamine2000 (Life Technologies, Washington, DC). Total transfected DNA was kept constant by addition of control vector. The cells were washed, incubated in phenol red-free DMEM containing 5% charcoal-stripped serum (obtained from the Tissue Culture Shared Resource) (0.2 ml/well) ± E2 (10 nM) ± the indicated compound for 24-hr, and harvested for luciferase assays. For each assay condition was tested in quadrupicate. To monitor the transfection efficiency, cultures were co-transfected with plasmid pRSV-β-gal (Promega, Madison, WI) to visualize transfected cells by X-gal staining.
# LCC9 cells = test: cell proliferation assay (cell counts days 1, 3, 5), LCC9; type: cell-based, human; conditions: for LCC9 cell proliferation, compound combined with Tam: compound plus Tam (1 μM) compared with compound alone
# Description: Starting on day 1, cells were refed daily with fresh medium (DMEM plus 5% CSS) containing the indicated agent. In panel F, the cells were refed with medium also containing ER-siRNA or control-siRNA (100 nM) at the indicated times. Wells were counted on days 1, 3, and 5 to determine cell numbers. Values are means ± SEMs of triplicate wells. The data shown in each panel are representative of three independent experiments.
# Assays were performed using as the growth medium phenol red-free DMEM containing 5% charcoal-stripped serum. Briefly, proliferating cells were harvested using trypsin, counted, inoculated into 12-well dishes at 1 × 10^4 cells per well on day 0 and allowed to attach and recover for 24 hr. The cells were then treated with the indicated agents for up to five days, with daily refeeding with fresh medium and agents. Triplicate wells were counted by Coulter Counter on days 1, 3, and 5. For experiments using siRNAs, cells were treated with the indicated siRNA (100 nM) starting on day -2, and fresh siRNA was added on days 0, 2, and 4.
"inhibition at 1 µM ([1]; MCF7, MCF-7, E2 10 nM, compound 1 μM, 24 hr, read-out: inhibition of E2-stimulated ER activity at 1 μM)",Compound,"ER/ERE complex in EMSA, compound added directly to nuclear extracts (ER/ERE complex)","interaction of ER with a model ERE oligonucleotide (EMSA, supershift) (ER/ERE complex)","ER/ERE complex in EMSA, cells pre-incubated with compound (ER/ERE complex; MCF-7 pre-incubated with E2 10 nM and compound 1 or 20 μM for 24 hr)","pIC50 ([1]; MCF-7, E2 10 nM, 24 hr)","effect on LCC9 cell growth, single agent (LCC9 cells; DMEM + 5% charcoal-stripped serum, up to 5 days, 4631-P/1 at 1 μM)","LCC9 cell proliferation, compound combined with Tam (LCC9 cells)","inhibition at 1 µM ([1]; MCF7, read-out: inhibition of E2-stimulated ER activity at 1 μM)",LCC9 cell proliferation in ER-siRNA-treated cells (LCC9 cells; ER-siRNA 100 nM)
≥ 50%,O=C(c1cc(Br)ccc1O)c1cc(Br)ccc1O [4631-P/1],greater effect,disrupt the interaction of ER with a model ERE oligonucleotide,dose-dependent reduction of the ER/ERE complex,≥ 6.00,inhibited LCC9 cell growth,greater inhibition of cell proliferation than 4631-P/1 alone,,
,"O=C(CC(c1ccccc1)N1CCCCC1)c1ccccc1 (stereo not shown) [35446-L/1, 1,3-diphenyl-3-(piperidin-1-yl)propan-1-one]",greater effect,disrupt the interaction of ER with a model ERE oligonucleotide,,≥ 6.00 and 6.10,,greater inhibition of LCC9 proliferation than did 35466-L/1 alone,≥ 50%,little effect on cell proliferation

# Source: paper PMC4747340, “A new class of small molecule estrogen receptor-alpha antagonists that overcome anti-estrogen resistance” (Oncotarget, 2015)
